Measured values as given in patent EP4603105A1, “PHARMACEUTICAL COMPOSITION CONTAINING CYCLIC COMPOUND HAVING SELECTIVE KRAS INHIBITORY EFFECT AGAINST HRAS AND NRAS” (CHUGAI SEIYAKU KABUSHIKI KAISHA, priority 2022, dated 2024).
*1 amine or outer side, *2 acyl side, *3 side chain or, on linkers, in order; H or OH if unused. Where a SMILES comes first, the peptide text is derived from it. Bridges are numbered along the chain shown (N, C = ends). [ ]: non-standard residue; d: D form. The star is where a group is joined. hPhe(3-Cl-4-CF3) = N[C@@H](CCc1ccc(C(F)(F)F)c(Cl)c1)C(=O)O; X42 = Cc1ccc(C[C@@H](C(=O)[*:2])N(CCC(F)(F)F)[*:1])cc1; NPrPhe(4-CF3) = CCCN[C@@H](Cc1ccc(C(F)(F)F)cc1)C(=O)O; NMeGly(cPent) = CN[C@H](C(=O)O)C1CCCC1; Pro(4,4-F2) = O=C(O)[C@@H]1CC(F)(F)CN1; Hyp = O=C(O)[C@@H]1C[C@@H](O)CN1; NMeD = CN[C@@H](CC(=O)O)C(=O)O; NMeL = CN[C@@H](CC(C)C)C(=O)O; Morpholide = C1CN(*)CCO1; Ac5c = NC1(C(=O)O)CCCC1; Ac4c = NC1(C(=O)O)CCC1; NEtG = CCNCC(=O)O; Sar = CNCC(=O)O

Legend:
[1] = tested on: human lung cancer strain NCI-H441; format: cell-based
Summary of the method: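 Proliferation was scored by […] measured after the reagent was added to cultures kept at 37°C in 5% carbon dioxide.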

HRAS wild-type protein = HRAS wild-type protein (Homo sapiens, UniProt P01112); experiment: Binding to HRAS by surface plasmon resonance (SPR), KD and KD ratio to KRAS
Summary of the method: (§1)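 SPR, 30°C: Avi-biotin RAS·GDP captured via Biotin CAPture (~100–300 RU); running buffer HBS pH 7.4, 1 mM DTT, 10 mM MgCl2, 0.01% Tween 20, 10 µM GDP, 4% DMSO. Single-cycle kinetics, 100 µL/min, 75 s injections; 1:1 model → KD.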

[2] = target: GDP-bound NRAS wild-type protein (Homo sapiens, UniProt P01111); experiment: Binding to NRAS by surface plasmon resonance (SPR), KD and KD ratio to KRAS
Summary of the method: as §1

[3] = ratio of the KD value with respect to HRAS wild-type protein to the KD value with respect to KRAS
[4] = ratio of the KD value with respect to GDP-bound NRAS wild-type protein to the KD value with respect to KRAS
[5] = ratio of KD value for HRAS wild-type protein to KD value for KRAS (SPR)
[6] = ratio of KD value for GDP-bound NRAS wild-type protein to KD value for KRAS (SPR)

HRAS wild-type protein, sequence (P01112 whole entry): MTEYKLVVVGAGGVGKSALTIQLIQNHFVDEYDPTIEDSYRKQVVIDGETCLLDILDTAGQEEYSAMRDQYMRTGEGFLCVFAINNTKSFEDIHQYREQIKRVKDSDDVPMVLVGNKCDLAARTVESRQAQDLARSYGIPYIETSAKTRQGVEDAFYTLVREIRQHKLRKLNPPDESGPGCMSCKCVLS
GDP-bound NRAS wild-type protein, sequence (P01111 whole entry): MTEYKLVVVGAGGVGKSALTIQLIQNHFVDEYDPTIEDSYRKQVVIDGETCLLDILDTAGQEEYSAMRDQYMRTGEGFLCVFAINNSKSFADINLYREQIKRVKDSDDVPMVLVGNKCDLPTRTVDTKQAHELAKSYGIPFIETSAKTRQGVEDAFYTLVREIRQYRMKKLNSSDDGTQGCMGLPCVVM

IC50 [1] [nM] | Structure (SMILES) | HRAS /KRAS (HRAS wild-type protein; [3]) | NRAS /KRAS [2, 4] | HRAS /KRAS (HRAS wild-type protein; ratio of KD for HRAS wild-type protein to KD for KRAS) | NRAS /KRAS ([2]; ratio of KD for GDP-bound NRAS wild-type protein to KD for KRAS) | HRAS /KRAS (HRAS wild-type protein; [5]) | NRAS /KRAS [2, 6]
0.9 | CCCN1C(=O)CN(C)C(=O)CN(C)C(=O)[C@H]([C@@H](C)CC)NC(=O)[C@H](CC(C)C)N(C)C(=O)C[C@@H](C(=O)N2CCOCC2)N(C)C(=O)[C@H](C2CCCC2)N(C)C(=O)C2(CCC2)NC(=O)[C@@H]2C[C@@H](OCC)CN2C(=O)[C@H](CCc2ccc(C(F)(F)F)c(Cl)c2)NC(=O)CN(C)C(=O)[C@@H]1Cc1ccc(C(F)(F)F)cc1 [PP0392] ([NMeL]I[Sar][Sar][NPrPhe(4-CF3)][Sar][hPhe(3-Cl-4-CF3)][Hyp](Et)[Ac4c][NMeGly(cPent)][NMeD]-Morpholide; lactam N-11) | C (A compound having a KD ratio of 0.1 or more and less than 3 is denoted as C) | B (a compound having 3 or more and less than 10 is denoted as B) | – | – | – | –
7.8 | CCCN1C(=O)CN(C)C(=O)CN(CC)C(=O)[C@H]([C@@H](C)CC)NC(=O)[C@H](CC(C)C)N(C)C(=O)C[C@@H](C(=O)N2CCOCC2)N(C)C(=O)[C@H](C2CCCC2)N(C)C(=O)C2(CCC2)NC(=O)[C@@H]2CC(F)(F)CN2C(=O)[C@H](CCc2ccc(C(F)(F)F)c(Cl)c2)NC(=O)CN(C)C(=O)[C@@H]1Cc1ccc(C(F)(F)F)cc1 [PP0400] ([NMeL]I[NEtG][Sar][NPrPhe(4-CF3)][Sar][hPhe(3-Cl-4-CF3)][Pro(4,4-F2)][Ac4c][NMeGly(cPent)][NMeD]-Morpholide; lactam N-11) | B (a compound having 3 or more and less than 10 is denoted as B) | B (a compound having 3 or more and less than 10 is denoted as B) | – | – | – | –
8.2 | CC[C@H](C)[C@@H]1NC(=O)[C@H](CC(C)C)N(C)C(=O)C[C@@H](C(=O)N2CCOCC2)N(C)C(=O)[C@H](C2CCCC2)N(C)C(=O)C2(CCCC2)NC(=O)[C@@H]2CCCN2C(=O)[C@H](CCc2ccc(C(F)(F)F)c(Cl)c2)NC(=O)CN(C)C(=O)[C@H](Cc2ccc(C)cc2)N(CCC(F)(F)F)C(=O)CN(C)C(=O)CN(C)C1=O [PP0103] ([NMeL]I[Sar][Sar][X42][Sar][hPhe(3-Cl-4-CF3)]P[Ac5c][NMeGly(cPent)][NMeD]-Morpholide; lactam N-11) | – | – | C (A compound having a KD ratio of 0.1 or more and less than 3 is denoted as C) | B (a compound having 3 or more and less than 10 is denoted as B) | – | –
2.2 | CCO[C@@H]1C[C@H]2C(=O)NC3(CC(C)(C)C3)C(=O)N(C)[C@@H](C3CCCC3)C(=O)N(C)[C@H](C(=O)N(C)C)CC(=O)N(C)[C@@H](CC3CC3)C(=O)N[C@@H]([C@@H](C)CC)C(=O)N(C)CC(=O)N(C)[C@H]3C/C=C\CCN(C3=O)[C@@H](Cc3ccc(C(F)(F)F)cc3)C(=O)N(C)CC(=O)N[C@@H](CCc3cc(F)c(C(F)(F)F)c(F)c3)C(=O)N2C1 [PP1568] | – | – | – | – | A (a compound having 10 or more and less than 20 is denoted as A) | A (a compound having 10 or more and less than 20 is denoted as A)
13.7 | CC[C@H](C)[C@@H]1NC(=O)[C@H](CC2CC2)N(C)C(=O)C[C@@H](C(=O)N(C)C)N(C)C(=O)[C@H](C2CCCC2)N(C)C(=O)C2(CCCC2)NC(=O)[C@@H]2C[C@H](C)CN2C(=O)[C@H](CCc2cc(F)c(C(F)(F)F)c(F)c2)NC(=O)CN(C)C(=O)[C@H](Cc2ccc(C(F)(F)F)cc2)N2CC/C=C\C[C@@H](C2=O)N(C)C(=O)CN(C)C1=O [PP1511] | – | – | – | – | A (a compound having 10 or more and less than 20 is denoted as A) | AA (a compound having 20 or more is denoted as AA)
23 | CC[C@H](C)[C@@H]1NC(=O)[C@H](CC)N(C)C(=O)C[C@@H](C(=O)N(C)CC)N(C)C(=O)[C@H](C2CCCC2)N(C)C(=O)C2(CC(C)(C)C2)NC(=O)[C@@H]2C[C@@H](C)CN2C(=O)[C@H](CCc2ccc(C(F)(F)F)c(Cl)c2)NC(=O)CN(C)C(=O)[C@H](Cc2ccc(C)cc2)N2CC/C=C\C[C@@H](C2=O)N(C)C(=O)CN(C)C1=O [PP1876] | – | – | – | – | A (a compound having 10 or more and less than 20 is denoted as A) | A (a compound having 10 or more and less than 20 is denoted as A)
2.2 | CCC[C@H]1C(=O)N[C@@H]([C@@H](C)CC)C(=O)N(C)CC(=O)N(C)[C@H]2C/C=C\CCN(C2=O)[C@@H](Cc2ccc(C(F)(F)F)cc2)C(=O)N(C)CC(=O)N[C@@H](CCc2cc(F)c(C(F)(F)F)c(F)c2)C(=O)N2C[C@H](OCC)C[C@H]2C(=O)NC2(CC(F)(F)C2)C(=O)N(C)[C@@H](C2CCCC2)C(=O)N(C)[C@H](C(=O)N(C)CC)CC(=O)N1C [PP1735] | – | – | – | – | A (a compound having 10 or more and less than 20 is denoted as A) | AA (a compound having 20 or more is denoted as AA)
